Our source for the IC50 values is patent US9637472B2, “Substituted 6,5-fused bicyclic heteroaryl compounds” (Epizyme, Inc., priority 2011, dated 2017).

In the assay the target is EZH2 (Homo sapiens (Human), UniProt Q15910). As to the kind of experiment: PRC2 enzyme assay on peptide substrates. It counts as biochemical. The settings on record: PRC2 enzyme assays on peptide substrates; 4 nM enzyme, 30 min preincubation at 25° C.; read-out: EZH2 IC50. The text has this: General Materials. S-adenosylmethionine (SAM), S-adenosylhomocyteine (SAH), bicine, KCl, Tween20, dimethylsulfoxide (DMSO) and bovine skin gelatin (BSG) were purchased from Sigma-Aldrich at the highest level of purity possible. Dithiothreitol (DTT) was purchased from EMD. ^3H-SAM was purchased from American Radiolabeled Chemicals with a specific activity of 80 Ci/mmol. 384-well streptavidin Flashplates were purchased from PerkinElmer.
Substrates. […] The sequences are listed below.
Recombinant PRC2 Enzymes. Human PRC2 enzymes were purified as 4-component enzyme complexes co-expressed in Spodoptera frugiperda (sf9) cells using a baculovirus expression system. The subunits expressed were wild-type EZH2 (NM_004456) or EZH2 Y641F, N, H, S or C mutants generated from the wild-type EZH2 construct, EED (NM_003797), Suz12 (NM_015355) and RbAp48 (NM_005610). The EED subunit contained an N-terminal FLAG tag that was used to purify the entire 4-component complex from sf9 cell lysates.
General Procedure for PRC2 Enzyme Assays on Peptide Substrates. The assays were all performed in a buffer consisting of 20 mM bicine (pH=7.6), 0.5 mM DTT, 0.005% BSG and 0.002% Tween20, prepared on the day of use. […] DMSO (1 μL) was added to columns 11, 12, 23, 24, rows A-H for the maximum signal control, and SAH, a known product and inhibitor of PRC2 (1 μL) was added to columns 11, 12, 23, 24, rows I-P for the minimum signal control. A cocktail (40 μL) containing the wild-type PRC2 enzyme and H3K27me0 peptide or any of the Y641 mutant enzymes and H3K27me2 peptide was added by Multidrop Combi (Thermo). The compounds were allowed to incubate with PRC2 for 30 min at 25° C., then a cocktail (10 μL) containing a mixture of non-radioactive and ^3H-SAM was added to initiate the reaction (final volume=51 μL). […] The assays were stopped by the addition of non-radioactive SAM (10 μL) to a final concentration of 600 μM, which dilutes the ^3H-SAM to a level where its incorporation into the peptide substrate is no longer detectable. 50 μL of the reaction in the 384-well polypropylene plate was then transferred to a 384-well Flashplate and the biotinylated peptides were allowed to bind to the streptavidin surface for at least 1 h before being washed three times with 0.1% Tween20 in a Biotek ELx405 plate washer. The plates were then read in a PerkinElmer TopCount platereader to measure the quantity of ^3H-labeled peptide bound to the Flashplate surface, measured as disintegrations per minute (dpm) or alternatively, referred to as counts per minute (cpm).
Where dpm=disintegrations per minute, cmpd=signal in assay well, and min and max are the respective minimum and maximum signal controls.
Where top and bottom are the normally allowed to float, but may be fixed at 100 or 0 respectively in a 3-parameter fit. The Hill Coefficient normally allowed to float but may also be fixed at 1 in a 3-parameter fit. Y is the % inhibition and X is the compound concentration.

Chain of EZH2 (Q15910 other isoform, or with tags, fused parts or gaps): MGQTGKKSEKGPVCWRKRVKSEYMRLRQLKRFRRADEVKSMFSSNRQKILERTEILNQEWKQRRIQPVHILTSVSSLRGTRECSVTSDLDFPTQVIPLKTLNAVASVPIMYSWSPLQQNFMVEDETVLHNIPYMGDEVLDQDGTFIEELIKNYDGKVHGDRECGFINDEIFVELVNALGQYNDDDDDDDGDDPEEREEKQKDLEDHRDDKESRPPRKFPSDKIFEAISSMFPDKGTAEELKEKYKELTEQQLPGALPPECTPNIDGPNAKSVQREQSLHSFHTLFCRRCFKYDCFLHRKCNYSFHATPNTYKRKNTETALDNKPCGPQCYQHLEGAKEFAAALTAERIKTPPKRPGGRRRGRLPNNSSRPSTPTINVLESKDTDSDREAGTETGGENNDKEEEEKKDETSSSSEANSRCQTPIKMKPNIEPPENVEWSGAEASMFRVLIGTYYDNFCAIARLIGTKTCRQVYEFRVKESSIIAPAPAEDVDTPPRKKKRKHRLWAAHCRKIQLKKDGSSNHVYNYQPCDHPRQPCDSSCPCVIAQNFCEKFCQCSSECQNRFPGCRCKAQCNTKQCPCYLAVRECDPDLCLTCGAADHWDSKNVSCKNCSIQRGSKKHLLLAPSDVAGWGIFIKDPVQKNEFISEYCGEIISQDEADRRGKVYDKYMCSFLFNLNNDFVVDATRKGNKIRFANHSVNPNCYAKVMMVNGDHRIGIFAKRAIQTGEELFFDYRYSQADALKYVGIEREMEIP
Chain of EZH2 (O75530 whole entry partner): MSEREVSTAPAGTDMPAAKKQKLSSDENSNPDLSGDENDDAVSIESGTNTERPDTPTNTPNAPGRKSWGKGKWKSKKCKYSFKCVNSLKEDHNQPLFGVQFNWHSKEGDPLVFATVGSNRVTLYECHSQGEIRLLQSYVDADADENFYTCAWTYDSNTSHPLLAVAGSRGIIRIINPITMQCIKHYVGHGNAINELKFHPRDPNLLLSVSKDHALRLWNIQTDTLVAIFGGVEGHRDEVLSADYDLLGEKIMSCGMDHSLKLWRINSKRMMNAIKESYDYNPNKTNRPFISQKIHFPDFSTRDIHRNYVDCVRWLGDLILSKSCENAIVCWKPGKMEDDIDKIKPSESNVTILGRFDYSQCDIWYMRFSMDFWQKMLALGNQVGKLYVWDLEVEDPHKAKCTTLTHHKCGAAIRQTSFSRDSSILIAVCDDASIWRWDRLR
Chain of EZH2 (Q15022 whole entry partner): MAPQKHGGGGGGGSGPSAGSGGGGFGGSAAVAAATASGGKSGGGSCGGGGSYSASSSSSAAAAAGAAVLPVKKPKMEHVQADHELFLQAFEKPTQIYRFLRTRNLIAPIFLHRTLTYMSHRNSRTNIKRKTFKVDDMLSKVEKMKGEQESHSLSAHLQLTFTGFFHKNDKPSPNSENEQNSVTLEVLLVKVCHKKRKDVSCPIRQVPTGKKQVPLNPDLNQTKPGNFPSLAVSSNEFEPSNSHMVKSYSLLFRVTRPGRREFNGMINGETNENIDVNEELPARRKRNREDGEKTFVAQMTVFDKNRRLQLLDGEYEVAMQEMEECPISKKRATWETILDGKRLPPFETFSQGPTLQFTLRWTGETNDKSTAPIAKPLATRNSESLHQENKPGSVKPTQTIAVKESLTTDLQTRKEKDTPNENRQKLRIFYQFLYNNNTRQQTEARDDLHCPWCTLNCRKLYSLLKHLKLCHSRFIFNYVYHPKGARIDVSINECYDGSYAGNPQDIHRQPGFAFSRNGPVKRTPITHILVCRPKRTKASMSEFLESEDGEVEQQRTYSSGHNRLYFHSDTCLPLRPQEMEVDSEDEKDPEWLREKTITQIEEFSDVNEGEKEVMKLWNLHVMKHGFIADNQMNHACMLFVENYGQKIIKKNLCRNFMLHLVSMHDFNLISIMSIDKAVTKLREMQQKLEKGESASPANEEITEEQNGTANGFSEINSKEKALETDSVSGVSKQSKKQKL
Chain of EZH2 (Q09028 whole entry partner): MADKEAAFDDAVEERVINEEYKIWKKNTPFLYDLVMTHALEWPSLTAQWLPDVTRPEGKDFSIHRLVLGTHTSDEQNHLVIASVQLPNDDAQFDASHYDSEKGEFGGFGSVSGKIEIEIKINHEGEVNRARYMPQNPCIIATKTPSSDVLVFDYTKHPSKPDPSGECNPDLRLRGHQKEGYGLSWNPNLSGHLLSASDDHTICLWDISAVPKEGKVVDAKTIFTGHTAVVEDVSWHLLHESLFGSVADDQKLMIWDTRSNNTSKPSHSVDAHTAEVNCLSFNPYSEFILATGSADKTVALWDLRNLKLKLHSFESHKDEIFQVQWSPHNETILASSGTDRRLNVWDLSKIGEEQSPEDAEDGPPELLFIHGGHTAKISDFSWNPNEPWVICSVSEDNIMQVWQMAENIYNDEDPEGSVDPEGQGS

Turning to `Cc1ccc(-n2ncc3c(C(=O)NCc4c(C)cc(C)[nH]c4=O)cc(-c4ccc(N5CCN(C)CC5)nc4)nc32)cc1` [Compound A-65], the IC50 lay within 3 to 10 µM.

Take `Cc1cc(C)c(CNC(=O)c2cc(-c3cccnc3N3CCNCC3)nc3c2cnn3C(C)C)c(=O)[nH]1` [Compound A-66]: the IC50 lay in the range of 1 to 3 µM.

On to `Cc1cc(C)c(CNC(=O)c2cc(-c3cccc(C(=O)O)c3)nc3c2cnn3C(C)C)c(=O)[nH]1` [Compound A-67], for which the half-maximal inhibitory concentration (IC50) is 1 to 3 µM.

As for `Cc1cc(C)c(CNC(=O)c2cc(-c3ccc(-c4ccccc4CN)nc3)nc3c2cnn3C(C)C)c(=O)[nH]1` [Compound A-68], the IC50 lay in the range of 3 to 10 µM.

As to `Cc1cc[nH]c(=O)c1CNC(=O)c1cc(-c2cccc(CN(C)CCN(C)C)c2)nc2c1cnn2C(C)C` [Compound A-70], the concentration for half-maximal inhibition (IC50) lay within 3 to 10 µM.

On to `CC(C)n1ncc2c(C(=O)NCc3cc4c([nH]c3=O)CCNC4)cc(-c3ccc4c(c3)OCCO4)nc21` [Compound A-71], for which the 50% inhibitory concentration (IC50) fell in the range of 10 to 50 µM.

Regarding `Cc1cc[nH]c(=O)c1CNC(=O)c1cc(-c2cccc(CN3CCN(C)CC3)c2)nc2c1cnn2C(C)C` [Compound A-72], the IC50 is 10 to 50 µM.

As to `Cc1cc(C)c(CN(C)C(=O)c2cc(-c3cccc(CN4CCN(C)CC4)c3)nc3c2cnn3C(C)C)c(=O)[nH]1` [Compound A-73], the half-maximal inhibitory concentration (IC50) was 10 to 50 µM.

For the compound `Cc1cc(C)n(C)c(=O)c1CNC(=O)c1cc(-c2cccc(CN(C)CCN(C)C)c2)nc2c1CNN2C(C)C` [Compound A-74], the IC50 was in the range of 10 to 50 µM.

Regarding `Cc1cc[nH]c(=O)c1CNC(=O)c1cc(-c2ccc3c(c2)OCCO3)nc2c1cnn2C(C)C` [Compound A-77], the IC50 is 10 to 50 µM.

With `Cc1cc(C)c(CNC(=O)c2cc(-c3cccc(CNC(=O)OC(C)(C)C)c3)nc3c2cnn3C(C)C)c(=O)[nH]1` [Compound A-92], the IC50 lay in the range of 1 to 3 µM.

In the case of `C=C(C)c1nn(C(C)C)c2nc(-c3ccc(CN4CCOCC4)cc3)cc(C(=O)NCc3c(C)cc(C)[nH]c3=O)c12` [Compound A-94], the concentration for half-maximal inhibition (IC50) was 3 to 10 µM.

Turning to `Cc1cc(C)c(CNC(=O)c2cc(-c3cccnc3N3CCN(C(=O)OC(C)(C)C)CC3)nc3c2cnn3C(C)C)c(=O)[nH]1` [Compound A-95], the IC50 lay within 3 to 10 µM.

For the compound `Cc1cc(CO)c(CNC(=O)c2cc(-c3ccc(CN4CCOCC4)cc3)nc3c2cnn3C(C)C)c(=O)[nH]1` [Compound A-96], the IC50 was in the range of 3 to 10 µM.

With `Cc1cc(C)c(CNC(=O)c2cc(-c3ccccc3CNC(=O)OC(C)(C)C)nc3c2cnn3C(C)C)c(=O)[nH]1` [Compound A-98], the IC50 lay in the range of 10 to 50 µM.

With `Cc1ccc(CNC(=O)c2cc(-c3cccc(CN(C)CCN(C)C)c3)nc3c2cnn3C(C)C)c(=O)[nH]1` [Compound A-99], the concentration for half-maximal inhibition (IC50) was in the range of 10 to 50 µM.

Turning to `Cc1ccc(CNC(=O)c2cc(-c3cccc(CN4CCN(C)CC4)c3)nc3c2cnn3C(C)C)c(=O)[nH]1` [Compound A-100], the IC50 lay in the range of 10 to 50 µM.

As to `Cc1cc(C)c(CNC(=O)c2cc(-c3ccc(N4CCN(C)CC4)nc3)nc3c2cnn3-c2ccccc2)c(=O)[nH]1` [Compound A-109], the IC50 is 10 to 50 µM.

Turning to `CCc1ccc(CNC(=O)c2cc(-c3ccc4c(c3)OCCO4)nc3c2cnn3C(C)C)c(=O)[nH]1` [Compound A-110], the IC50 fell in the range of 10 to 50 µM.

Turning to `CC1=CC(C)=C(CNC(=O)c2cc(-c3cccc(CNCCCN(C)C)c3)nc3c2cnn3C(C)C)C(C)N1` (centres unmarked) [Compound A-125], the half-maximal inhibitory concentration (IC50) lay within 1 to 3 µM.

For `Cc1cc(C)c(CNC(=O)c2cc(-c3cccc(CNCCN4CCOCC4)c3)nc3c2cnn3C(C)C)c(=O)[nH]1` [Compound A-126], the 50% inhibitory concentration (IC50) lay in the range of 0.3 to 1 µM.

`Cc1cc(C)c(CNC(=O)c2cc(C3=CC(C)(C)NC(C)(C)C3)nc3c2cnn3C2CCN(Cc3ccccc3)CC2)c(=O)[nH]1` [Compound B-1, 1-(1-benzylpiperidin-4-yl)-N-((4,6-dimethyl-2-oxo-1,2-dihydropyridin-3-yl)methyl)-6-(2,2,6,6-tetramethyl-1,2,3,6-tetrahydropyridin-4-yl)-1H-pyrazolo[3,4-b]pyridine-4-carboxamide]: the half-maximal inhibitory concentration (IC50) was less than 0.3 µM.

With `CC(=O)N1CCC(n2ncc3c(C(=O)NCc4c(C)cc(C)[nH]c4=O)cc(C4=CC(C)(C)NC(C)(C)C4)nc32)CC1` [Compound B-2, 1-(1-acetylpiperidin-4-yl)-N-((4,6-dimethyl-2-oxo-1,2-dihydropyridin-3-yl)methyl)-6-(2,2,6,6-tetramethyl-1,2,3,6-tetrahydropyridin-4-yl)-1H-pyrazolo[3,4-b]pyridine-4-carboxamide], the IC50 fell in the range of 0.3 to 1 µM.

As to `C=C(C)Cn1ncc2c(C(=O)NCc3c(C)cc(C)[nH]c3=O)cc(C3=CC(C)(C)NC(C)(C)C3)nc21` [Compound B-3, N-((4,6-dimethyl-2-oxo-1,2-dihydropyridin-3-yl)methyl)-1-(2-methylallyl)-6-(2,2,6,6-tetramethyl-1,2,3,6-tetrahydropyridin-4-yl)-1H-pyrazolo[3,4-b]pyridine-4-carboxamide], the half-inhibitory concentration (IC50) is 1 to 3 µM.

As to `Cc1cc(C)c(CNC(=O)c2cc(C3=CC(C)(C)NC(C)(C)C3)nc3c2cnn3C2CCCC2)c(=O)[nH]1` [Compound B-5, 1-cyclopentyl-N-((4,6-dimethyl-2-oxo-1,2-dihydropyridin-3-yl)methyl)-6-(2,2,6,6-tetramethyl-1,2,3,6-tetrahydropyridin-4-yl)-1H-pyrazolo[3,4-b]pyridine-4-carboxamide], the IC50 was less than 0.3 µM.

As to `Cc1cc(C)c(CNC(=O)c2cc(OC3CCN(C)CC3)nc3c2cnn3C(C)C)c(=O)[nH]1` [Compound B-6, N-((4,6-dimethyl-2-oxo-1,2-dihydropyridin-3-yl)methyl)-1-isopropyl-6-((1-methylpiperidin-4-yl)oxy)-1H-pyrazolo[3,4-b]pyridine-4-carboxamide], the concentration for half-maximal inhibition (IC50) was 0.3 to 1 µM.

With `Cc1cc(C)c(CNC(=O)c2cc(C3CCN(C(=O)C4CN(C)C4)CC3)nc3c2cnn3C(C)C)c(=O)[nH]1` [Compound B-8, N-((4,6-dimethyl-2-oxo-1,2-dihydropyridin-3-yl)methyl)-1-isopropyl-6-(1-(1-methylazetidine-3-carbonyl)piperidin-4-yl)-1H-pyrazolo[3,4-b]pyridine-4-carboxamide], the half-inhibitory concentration (IC50) is less than 0.3 µM.

For `Cc1cc(C)c(CNC(=O)c2cc(N3CCN(C)CC3)nc3c2cnn3C(C)C)c(=O)[nH]1` [Compound B-9, N-((4,6-dimethyl-2-oxo-1,2-dihydropyridin-3-yl)methyl)-1-isopropyl-6-(4-methylpiperazin-1-yl)-1H-pyrazolo[3,4-b]pyridine-4-carboxamide], the IC50 fell in the range of 1 to 3 µM.

Take `Cc1cc(C)c(CNC(=O)c2cc(N3CCC(O)CC3)nc3c2cnn3C(C)C)c(=O)[nH]1` [Compound B-11, N-((4,6-dimethyl-2-oxo-1,2-dihydropyridin-3-yl)methyl)-6-(4-hydroxypiperidin-1-yl)-1-isopropyl-1H-pyrazolo[3,4-b]pyridine-4-carboxamide]: the half-inhibitory concentration (IC50) lay within 1 to 3 µM.

Take `Cc1cc(C)c(CNC(=O)c2c(Cl)c(C3=CC(C)(C)NC(C)(C)C3)nc3c2cnn3C(C)C)c(=O)[nH]1` [Compound B-12, 5-chloro-N-((4,6-dimethyl-2-oxo-1,2-dihydropyridin-3-yl)methyl)-1-isopropyl-6-(2,2,6,6-tetramethyl-1,2,3,6-tetrahydropyridin-4-yl)-1H-pyrazolo[3,4-b]pyridine-4-carboxamide]: the concentration for half-maximal inhibition (IC50) fell in the range of 1 to 3 µM.

For `Cc1cc(C)c(CNC(=O)c2cc(C3=CC(C)(C)NC(C)(C)C3)nc3c2c(C)nn3C(C)C)c(=O)[nH]1` [Compound B-13, N-((4,6-dimethyl-2-oxo-1,2-dihydropyridin-3-yl)methyl)-1-isopropyl-3-methyl-6-(2,2,6,6-tetramethyl-1,2,3,6-tetrahydropyridin-4-yl)-1H-pyrazolo[3,4-b]pyridine-4-carboxamide], the IC50 lay within 0.3 to 1 µM.

Regarding `Cc1cc(C)c(CNC(=O)c2cc(C3=CC(C)(C)NC(C)(C)C3)nc3c2cnn3C2CCC2)c(=O)[nH]1` [Compound B-14, 1-cyclobutyl-N-((4,6-dimethyl-2-oxo-1,2-dihydropyridin-3-yl)methyl)-6-(2,2,6,6-tetramethyl-1,2,3,6-tetrahydropyridin-4-yl)-1H-pyrazolo[3,4-b]pyridine-4-carboxamide], the IC50 was 0.3 to 1 µM.
